Data on 7 compounds can be found in patent US10000471B2, “Pyrazole P38 map kinase inhibitors” (Respivert Limited, priority 2010, dated 2018).

Data set [1] concerns Differentiated U937 cells. Description: Cell viability MTT assay. The format is cell-based, human. To be noted: negative = apparent increase in viability; for MTT Assay (Viability) 4 h d-U937, percentage loss of cell viability: 4 hr in 5% FCS; for MTT Assay (Viability) 24 h d-U937, percentage loss of cell viability: 24 h in 10% FCS. The protocol: Differentiated U937 cells were pre-incubated with each test compound under two protocols: the first for 4 hr in 5% FCS and the second in 10% FCS for 24 h. The supernatant was replaced with 200 μL of new media and 10 μL of MTT stock solution (5 mg/mL) was added to each well. After incubation for 1 hr the media were removed, 200 μL of DMSO was added to each well and the plates were shaken lightly for 1 hr prior to reading the absorbance at 550 nm. The percentage loss of cell viability was calculated for each well relative to vehicle (0.5% DMSO) treatment. Consequently an apparent increase in cell viability for drug treatment relative to vehicle is tabulated as a negative percentage.

Data set [2] deals with ICAM-1 induction in BEAS2B cells. Description: Poly I:C-induced ICAM-1 induction in BEAS2B cells. Particulars: Homo sapiens, BEAS-2B, read-out: PolyIC/ICAM1 IC50 BEAS2B. The format is cell-based, human. The protocol:
Poly I:C-Induced ICAM-1 Induction in BEAS2B Cells
Poly I:C (1 μg/mL) (Invivogene Ltd., San Diego, Calif.) was transfected into BEAS2B cells (human bronchial epithelial cells, ATCC) with Oligofectamine (Invitrogen, Carlsbad, Calif.). Cells were pre-incubated with final concentrations of test compounds for 2 hr and the level of ICAM1 expression on the cell surface was determined by cell-based ELISA. At a time point 18 hr after poly I:C transfection, cells were fixed with 4% formaldehyde in PBS and then endogenous peroxidase was quenched by the addition of 0.1% sodium azide and 1% hydrogen peroxide. Cells were washed with wash-buffer (0.1% Tween in PBS: PBS-Tween). and after blocking the wells with 5% milk in PBS-Tween for 1 hr, the cells were incubated with anti-human ICAM-1 antibody (Cell Signaling Technology, Danvers, Mass.) in 1% BSA PBS overnight at 4° C. The cells were washed with PBS-Tween and incubated with the secondary antibody (HRP-conjugated anti-rabbit IgG, Dako Ltd., Glostrup, Denmark). The ICAM-1 signal was detected by adding substrate and reading the absorbance at 450 nm against a reference wavelength of 655 nm using a spectrophotometer. The cells were then washed with PBS-Tween and total cell numbers in each well were determined by reading absorbance at 595 nm after Crystal Violet staining and elution by 1% SDS solution. The measured OD 450-655 readings were corrected for cell number by dividing with the OD595 reading in each well. The inhibition of ICAM-1 expression was calculated at each concentration of test compound by comparison with vehicle control. The 50% inhibitory concentration (IC50) was determined from the resultant concentration-response curve.

Data set [3] concerns the target T1, p38 MAPKα isoform (MAPK14) (Homo sapiens, UniProt Q16539).
T1 construct: purchased Invitrogen
Description: Enzyme inhibition assay (FRET, Z-LYTE), p38 MAPKα via MAPKAP-K2 activation. To be noted: read-out: Enzyme Inhibition IC50 p38α. The format is biochemical. The protocol: (§1) The enzyme inhibitory activities of compounds disclosed herein were determined by fluorescence resonance energy transfer (FRET) using synthetic peptides labelled with both donor and acceptor fluorophores (Z-LYTE, Invitrogen Ltd., Paisley, UK). Recombinant, phosphorylated p38 MAPKγ (MAPK12:Invitrogen) was diluted in HEPES buffer, mixed with the test compound at the desired final concentrations and incubated for 2 hr at RT. The FRET peptide (2 μM) and ATP (100 μM) were added to the enzyme/compound mixture and incubated for 1 hr. Development reagent (protease) was added for 1 hr prior to detection in a fluorescence microplate reader (Varioskan® Flash, ThermoFisher Scientific). The site-specific protease cleaves non-phosphorylated peptide only and eliminates the FRET signal. Phosphorylation levels of each reaction were calculated using the ratio of coumarin emission (donor) over fluorescein emission (acceptor) for which high ratios indicate high phosphorylation and low ratios indicate low phosphorylation levels. The percentage inhibition of each reaction was calculated relative to non-inhibited control and the 50% inhibitory concentration (IC50 value) then calculated from the concentration-response curve.
For the p38 MAPKα isoform (MAPK14: Invitrogen), enzyme activity was evaluated indirectly by determining the level of activation/phosphorylation of the down-stream molecule, MAPKAP-K2. The p38 MAPKα protein was mixed with the test compound for 2 hr at RT. […] Development reagent was then added and the mixture incubated for 1 hr before detection by fluorescence completed the assay protocol.

Data set [4] deals with TNFα release in THP-1 cells. Description: LPS-induced TNFα release in THP-1 cells. The format is cell-based, human. To be noted: Homo sapiens. The protocol: LPS-Induced TNFα Release in THP-1 Cells
THP-1 cells, a human monocytic cell line, were stimulated with 3 μg/mL of LPS (from E. Coli; 0111:B4, Sigma) for 4 hr and the supernatant collected for determination of the TNFα concentration by sandwich ELISA (Duo-set, R&D systems). The inhibition of TNFα production was calculated at each concentration by comparison with vehicle control. The 50% inhibitory concentration (IC50) was determined from the resultant concentration-response curve.

Data set [5] concerns TNFα release in d-U937 cells. The experiment in a line: LPS-induced TNFα release in d-U937 cells. The format is cell-based, human. Particulars: Homo sapiens, dU937, relative to 10 μg/mL BIRB796, read-out: LPS/TNFα REC50 d-U937. On the procedure: (§2) LPS-Induced TNFα/IL-8 Release in d-U937 Cells
(§3) U937 cells, a human monocytic cell line, were differentiated to macrophage-type cells by incubation with phorbol myristate acetate (PMA; 100 ng/ml) for 48 to 72 hr. Cells were pre-incubated with final concentrations of test compound for 2 hr and were then stimulated with 0.1 μg/mL of LPS (from E. Coli: O111:B4, Sigma) for 4 hr. The supernatant was collected for determination of TNFα and IL-8 concentrations by sandwich ELISA (Duo-set, R&D systems). The inhibition of TNFα production was calculated as a percentage of that achieved by 10 μg/mL of BIRB796 at each concentration of test compound by comparison against vehicle control. The relative 50% effective concentration (REC50) was determined from the resultant concentration-response curve. The inhibition of IL-8 production was calculated at each concentration of test compound by comparison with vehicle control. The 50% inhibitory concentration (IC50) was determined from the resultant concentration-response curve.

Data set [6] deals with IL-8 release in d-U937 cells. Description: LPS-induced IL-8 release in d-U937 cells. The format is cell-based, human. To be noted: Homo sapiens, dU937. The protocol: as §2, §3
Data set [7] addresses T2, p38 MAPKγ (MAPK12) (Homo sapiens, UniProt P53778).
T2 construct: purchased Invitrogen
T2 sequence (P53778 1-367): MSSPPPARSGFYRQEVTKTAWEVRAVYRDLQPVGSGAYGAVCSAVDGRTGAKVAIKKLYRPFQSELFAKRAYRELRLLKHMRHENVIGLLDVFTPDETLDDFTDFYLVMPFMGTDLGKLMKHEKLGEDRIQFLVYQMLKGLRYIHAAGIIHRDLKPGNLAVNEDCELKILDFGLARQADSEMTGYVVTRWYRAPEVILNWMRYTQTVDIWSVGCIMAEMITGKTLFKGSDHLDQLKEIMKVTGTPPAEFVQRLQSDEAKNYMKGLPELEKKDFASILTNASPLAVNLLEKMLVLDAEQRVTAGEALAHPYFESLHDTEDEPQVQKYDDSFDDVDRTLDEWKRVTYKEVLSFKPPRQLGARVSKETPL
The experiment in a line: Enzyme inhibition assay (FRET, Z-LYTE), p38 MAPKγ. The format is biochemical. To be noted: read-out: Enzyme Inhibition IC50 p38γ. On the procedure: as §1

T1 sequence (Q16539 whole entry, canonical isoform): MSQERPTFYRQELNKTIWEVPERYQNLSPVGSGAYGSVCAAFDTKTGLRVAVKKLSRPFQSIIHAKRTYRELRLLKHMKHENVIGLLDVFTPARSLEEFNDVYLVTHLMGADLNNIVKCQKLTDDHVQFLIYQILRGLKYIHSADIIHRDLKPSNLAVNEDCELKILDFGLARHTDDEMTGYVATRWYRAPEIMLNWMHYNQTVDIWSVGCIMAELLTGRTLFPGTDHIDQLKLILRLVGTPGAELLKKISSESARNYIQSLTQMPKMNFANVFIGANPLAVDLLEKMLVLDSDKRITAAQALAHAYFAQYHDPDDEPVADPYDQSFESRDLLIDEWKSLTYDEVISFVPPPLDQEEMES

Take `CSc1ccc(-n2nc(C(C)(C)C)cc2NC(=O)Nc2ccc(Oc3ccnc(NC(=O)N4CCCC4)c3)c(Cl)c2Cl)cc1` [Example 10, N-(4-(4-(3-(3-tert-Butyl-1-(4-(methylthio)phenyl)-1H-pyrazol-5-yl)ureido)-2,3-dichlorophenoxy)pyridin-2-yl)pyrrolidine-1-carboxamide]: in data set [1], the “MTT Assay (Viability) 4 h d-U937, percentage loss of cell viability” value is recorded as −18.7%. In addition, the “MTT Assay (Viability) 24 h d-U937, percentage loss of cell viability” value in data set [1] is 17.0%. Moreover, the IC50 in data set [2] was determined as 1.7 nM; in data set [3] it was 36.7 nM; in data set [4], 0.4 nM; in data set [6], 1.2 nM; in data set [7] it was 184 nM. Besides, in data set [5], the EC50 came out at 0.8 nM.
Turning to `CN(C)[C@@H]1CCN(C(=O)Nc2cc(Oc3ccc(NC(=O)Nc4cc(C(C)(C)C)nn4-c4ccc(O)cc4)c(Cl)c3Cl)ccn2)C1` [Example 11, (R)—N-(4-(4-(3-(3-tert-Butyl-1-(4-hydroxyphenyl)-1H-pyrazol-5-yl)ureido)-2,3-dichlorophenoxy)pyridin-2-yl)-3-(dimethylamino)pyrrolidine-1-carboxamide], the “MTT Assay (Viability) 4 h d-U937, percentage loss of cell viability” value in data set [1] is −1.3%. Further, the “MTT Assay (Viability) 24 h d-U937, percentage loss of cell viability” value in data set [1] was 42.0%. Further, the IC50 in data set [2] came out at 1.8 nM; in data set [3] it was 15.9 nM; in data set [4], 0.7 nM; in data set [6], 4.5 nM; in data set [7], 38.7 nM. Besides, the EC50 in data set [5] is 0.8 nM.
Take `CCNC(=O)Nc1cc(Oc2ccc(NC(=O)Nc3cc(C(C)(C)C)nn3-c3ccc(OC)cc3)c(Cl)c2Cl)ccn1` [Example 12, 1-(4-(4-(3-(3-tert-Butyl-1-(4-methoxyphenyl)-1H-pyrazol-5-yl)ureido)-2,3-dichlorophenoxy)pyridin-2-yl)-3-ethylurea]: the “MTT Assay (Viability) 4 h d-U937, percentage loss of cell viability” value in data set [1] worked out at 5.0%. For the same compound, in data set [1], the “MTT Assay (Viability) 24 h d-U937, percentage loss of cell viability” value is recorded as 24.1%. In addition, the IC50 came to 2.7 nM in data set [2]; 24.7 nM in data set [3]; 1.6 nM in data set [4]; 0.2 nM in data set [6]; 57.2 nM in data set [7]. In addition, the EC50 in data set [5] was found to be 1.7 nM.
Consider `COc1ccc(-n2nc(C(C)(C)C)cc2NC(=O)Nc2ccc(Oc3ccnc(NC(=O)NCCN(C)C)c3)c(Cl)c2Cl)cc1` [Example 13, 1-(3-tert-Butyl-1-(4-methoxyphenyl)-1H-pyrazol-5-yl)-3-(2,3-dichloro-4-((2-(3-(2-(dimethylamino)ethyl)ureido)pyridin-4-yl)oxy)phenyl)urea], for which the “MTT Assay (Viability) 4 h d-U937, percentage loss of cell viability” value in data set [1] is recorded as −6.4%. Also, in data set [1], the “MTT Assay (Viability) 24 h d-U937, percentage loss of cell viability” value is reported as 63.9%. The IC50 in data set [2] came to 2.1 nM; in data set [3], 11.2 nM; in data set [4] it was 1.7 nM; in data set [6], 1.3 nM; in data set [7], 21.7 nM. Further, the EC50 in data set [5] is 2.1 nM.
As to `COCC(=O)Nc1cc(COc2ccc(NC(=O)Nc3cc(C(C)(C)C)nn3-c3ccc(C)cc3)c(Cl)c2Cl)ccn1` [Example 14, N-(4-((4-(3-(3-tert-Butyl-1-p-tolyl-1H-pyrazol-5-yl)ureido)-2,3-dichlorophenoxy)methyl)pyridin-2-yl)-2-methoxyacetamide], the “MTT Assay (Viability) 4 h d-U937, percentage loss of cell viability” value in data set [1] is given as −7.9%. In addition, the “MTT Assay (Viability) 24 h d-U937, percentage loss of cell viability” value in data set [1] is 49.6%. Further, the IC50 was 32.2 nM in data set [2]; 17 nM in data set [3]; 6.1 nM in data set [4]; 70.2 nM in data set [6]; 33.1 nM in data set [7]. The EC50 in data set [5] turned out to be 40.8 nM.
`COCC(=O)Nc1cc(COc2ccc(NC(=O)Nc3cc(C(C)(C)C)nn3-c3ccc(OC)cc3)c(Cl)c2Cl)ccn1` [Example 15, N-(4-((4-(3-(3-tert-Butyl-1-(4-methoxyphenyl)-1H-pyrazol-5-yl)ureido)-2,3-dichlorophenoxy)methyl)pyridin-2-yl)-2-methoxyacetamide]: the “MTT Assay (Viability) 4 h d-U937, percentage loss of cell viability” value in data set [1] is given as −12.2%. For the same compound, the “MTT Assay (Viability) 24 h d-U937, percentage loss of cell viability” value in data set [1] was found to be 12.4%. Further, the IC50 in data set [2] is 31.2 nM; in data set [3], 15.7 nM; in data set [4] it was 19.9 nM; in data set [6], 162 nM; in data set [7], 107 nM. The EC50 in data set [5] came to 83.8 nM.
With `COCC(=O)Nc1cc(COc2ccc(NC(=O)Nc3cc(C(C)(C)C)nn3-c3ccc(C)cc3)c3cccnc23)ccn1` [Example 16, N-(4-((5-(3-(3-tert-Butyl-1-p-tolyl-1H-pyrazol-5-yl)ureido)quinolin-8-yloxy)methyl)pyridin-2-yl)-2-methoxyacetamide], the “MTT Assay (Viability) 4 h d-U937, percentage loss of cell viability” value in data set [1] is given as −8.1%. The “MTT Assay (Viability) 24 h d-U937, percentage loss of cell viability” value in data set [1] is listed as −21.3%. Moreover, the IC50 in data set [2] is above 1690 nM; in data set [3], 36.7 nM; in data set [4] it was above 1690 nM; in data set [6], 4960 nM; in data set [7] it was 1440 nM. Further, in data set [5], the EC50 turned out to be 876 nM.
